Assay results taken from patent publication US20180353567A1, “TREATMENT OF CARDIOVASCULAR DISEASE WITH COMPOUNDS THAT PROMOTE SELECTIVE INTERACTION OF THE B2-ADRENERGIC RECEPTOR WITH B-ARRESTIN” (THOMAS JEFFERSON UNIVERSITY, priority 2015, published 2018).
Entries after “also recorded” stand apart in the source; their conditions may differ. Where a SMILES comes first, the peptide text is derived from it.

Experiments:
FLAG-β2AR [1] = target: T1, FLAG-β2AR (Homo sapiens, UniProt P07550); experiment: β2AR phosphorylation (pSer355/pSer356) with phosphospecific antibody; type: cell-based; conditions: time-course; 1 μM isoproterenol, 10 μM carvedilol or 10 μM ICL1-9
T1 construct: expressed in transfected cells
T1 sequence (P07550 whole entry): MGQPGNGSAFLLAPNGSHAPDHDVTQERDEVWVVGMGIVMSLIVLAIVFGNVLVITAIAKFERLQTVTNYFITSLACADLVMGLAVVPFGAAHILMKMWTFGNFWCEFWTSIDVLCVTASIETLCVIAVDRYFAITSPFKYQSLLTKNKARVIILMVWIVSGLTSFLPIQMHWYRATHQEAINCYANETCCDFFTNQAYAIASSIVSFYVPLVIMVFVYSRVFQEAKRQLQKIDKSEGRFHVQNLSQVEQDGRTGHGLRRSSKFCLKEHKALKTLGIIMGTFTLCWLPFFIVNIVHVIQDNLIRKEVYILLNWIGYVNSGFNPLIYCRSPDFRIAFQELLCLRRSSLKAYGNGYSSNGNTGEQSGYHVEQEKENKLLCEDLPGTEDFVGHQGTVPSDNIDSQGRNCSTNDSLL
Procedure: HEK293 cells stably overexpressing FLAG-β2AR were grown in 10 cm dishes at 37° C. in DMEM supplemented with 10% FBS and 50 μg/ml G418 sulfate (Cellgro). […] Briefly, cell lysates were immunoprecipitated using mouse monoclonal M2 anti-FLAG (Sigma-Aldrich) and Protein G agarose PLUS beads (Santa Cruz Biotechnologies). The beads were incubated overnight at 4° C., pelleted, washed and then suspended in Laemeli buffer. […] Chemiluminescence was measured using Pico chemiluminescent substrate (Thermo Scientific).

phospholamban (PLB) = experiment: Phospholamban phosphorylation in isolated cardiomyocytes; type: cell-based, murine; conditions: 0.1 μM isoproterenol or 10 μM ICL1-9, 5 min
Excerpt: […]. Lysates were run on 8% SDS-PAGE gels and transferred to Immobilon-PSQ polyvinylidene fluoride […] pore size membranes (Millipore, Billerica, Mass.). PLB phosphorylation (cardiomyocyte lysates) was detected using anti-Phospho-Ser^16 PLB rabbit pAb (1:5000, Badrilla) and normalized to total PLB as detected with anti-PLB mouse mAb (1:1000, Badrilla). β-arrestin1 and 2 expression levels (left ventricular lysates) were detected using anti-β-arrestin1/2 rabbit mAb (1:1000, Cell Signaling Technology) and normalized to GAPDH levels as detected with anti-GAPDH rabbit mAb (1:1000, Cell Signaling Technology). Membranes were subsequently incubated with appropriate anti-rabbit or anti-mouse IRDye (680 or 800)-labeled antibodies and detected using the LiCOR Biosciences Odyssey system.

β1AR = target: T2, β1AR (Homo sapiens, UniProt P08588); experiment: β1AR/β-arrestin2 interaction by FRET in U2S cells; type: cell-based; conditions: isoproterenol 1 μM, ICL1-9 10 μM
T2 construct: expressed in transfected cells; host or cells: human osteosarcoma U2S cells, adenoviral infection
T2 sequence (P08588 whole entry): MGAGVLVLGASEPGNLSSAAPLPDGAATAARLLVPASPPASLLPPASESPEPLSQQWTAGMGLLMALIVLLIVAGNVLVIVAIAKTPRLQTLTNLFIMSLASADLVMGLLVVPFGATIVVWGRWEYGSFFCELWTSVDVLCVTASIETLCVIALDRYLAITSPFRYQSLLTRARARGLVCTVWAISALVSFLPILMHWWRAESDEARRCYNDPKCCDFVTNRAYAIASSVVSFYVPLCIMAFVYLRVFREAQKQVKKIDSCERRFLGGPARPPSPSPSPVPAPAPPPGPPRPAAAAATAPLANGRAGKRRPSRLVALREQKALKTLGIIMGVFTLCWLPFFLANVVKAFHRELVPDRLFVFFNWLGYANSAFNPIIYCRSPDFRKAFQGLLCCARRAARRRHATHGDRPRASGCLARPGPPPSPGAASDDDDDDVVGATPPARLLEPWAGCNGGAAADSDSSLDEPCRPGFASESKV

β2AR [2] = target: T3, β2AR (Homo sapiens, UniProt P07550); experiment: [125I]-iodocyanopindolol competitive radioligand binding; conditions: 1 nM radioligand
T3 sequence (P07550 whole entry): as the sequence (P07550 whole entry) above

FLAG-β1AR = target: T4, FLAG-β1AR (Homo sapiens, UniProt P08588); experiment: β1AR internalization by cell surface ELISA; type: cell-based; conditions: 1 h time-course
T4 construct: expressed in transfected cells
T4 sequence (P08588 whole entry): as the sequence (P08588 whole entry) above
Procedure: (§1) Receptor internalization was measured by cell surface enzyme-linked immunosorbent assay as previously described (5, 45).

FLAG-β2AR [3] = target: T1, FLAG-β2AR; experiment: cAMP measurement in HEK293 cells stably overexpressing FLAG-β2AR; type: cell-based
Procedure: HEK293 cells stably overexpressing a FLAG-β2AR were cultured to confluency in 24 well plates at 37° C. in Dulbecco's Modified Eagle Medium (DMEM, Cellgro) supplemented with 10% fetal bovine serum (FBS) and 50 μg/ml G418 sulfate (Cellgro). […] Stimulation was ended by the removal of media on ice and cells were lysed by adding 80 μl 0.1 M HCl followed by 20 min incubation at room temperature on an orbital shaker. Lysates were cleared by centrifugation at 1,000×g for 15 min. cAMP levels were measured using the Cayman Chemical Cyclic AMP EIA kit according to the manufacturer's instructions.

[4] = test system: adult murine cardiomyocytes; experiment: Adult murine cardiomyocyte contractility; type: cell-based
Procedure: (§2) Adult murine cardiac myocytes were isolated from the septum and LV free wall of 8-12 week old mice as previously described (47). Briefly, mice were heparinized (1,500 U/kg ip) and anesthetized (pentobarbital sodium, 50 mg/kg ip). Excised hearts were mounted on a steel cannula and retrograde perfused (100 cm H2O, 37° C.) with Ca2+-free bicarbonate buffer followed by enzymatic digestion (collagenases B and D, protease XIV). […] The final Ca2+ buffer was then aspirated and replaced with MEM (Sigma-Aldrich) containing 1.2 mM Ca2+, 2.5% FBS, and 1% penicillin/streptomycin. The pH was adjusted to 7.0 in 4% CO2 by the addition of NaHCO3 (0.57 g/l). After 1 h (4% CO2, 37° C.), media was replaced with FBS-free MEM containing 0.1 mg/ml BSA and antibiotics. Myocytes adherent to coverslips were bathed in 0.7 ml of air- and temperature-equilibrated (37° C.) HEPES-buffered (20 mM, pH 7.4) medium 199 containing 1.8 mM [Ca2+] and used within 2 to 8 h of isolation. For Ca^2+ transient measurements, cardiomyocytes were exposed to […] for 15 min at 37° C.

mBB-β2AR = experiment: Monobromobimane-labeled purified β2AR fluorescence (TM6 movement); type: biochemical; conditions: loss of peak fluorescence and increase in λmax
Excerpt: Full-length PN1-β2AR was purified from Sf9 insect cells and labeled with monobromobimane as previously described (5, 46). […] Background fluorescence contributed by the assay buffer and ligand were subtracted from the experimental spectra.

EGFR = EGFR transactivation (phosphorylation at EGFR Tyr845) in HEK293 FLAG-β2AR cells; type: cell-based; conditions: HEK293 stably overexpressing FLAG-β2AR
FLAG-β2AR [5] = target: T1, FLAG-β2AR; experiment: β2AR internalization by cell surface ELISA; type: cell-based
Procedure: as §1

C57Bl/6 mice [6] = conditions: 24 hr reperfusion
Procedure: After 24 hr of reperfusion, the hearts were perfused with Evans Blue dye and the mice were sacrificed, hearts frozen, stained with TTC, photographed and risk and infarct areas calculated. Treated mice were also analyzed after 24 hr reperfusion for cell death staining (TUNEL, red), nuclear staining (DAPI, blue) and cardiomyocyte staining (α-sarcomeric actin, green) of cardiac slices.

β2AR [7] = target: T3, β2AR; experiment: β-arrestin2 recruitment to the β2AR by BRET in HEK293 cells; type: cell-based; parameters: expressed in transfected cells; host or cells: HEK293
[8] = test system: primary murine cardiomyocytes; experiment: Ca2+ transient measurement in cardiomyocytes; type: cell-based
Procedure: as §2

ERK1/2 = experiment: ERK phosphorylation by western blot in HEK293 FLAG-β2AR cells; type: cell-based; conditions: time-course
Procedure: HEK293 cells stably overexpressing FLAG-β2AR were grown to ˜90% confluence in 6 well plates and serum starved for 16 h. […] On ice, assay media was removed and 100 μl of lysis buffer was added. Cell lysates were scraped and briefly sonicated. 20 μl of 6× Laemmli buffer was added and the lysate was boiled for 10 min. ERK phosphorylation was detected by western blotting using a polyclonal primary antibody against phospho-ERK1/2 (1:500 in TBST with 5% BSA, Cell Signaling Technologies) and total ERK2 levels were detected using a monoclonal anti-ERK2 antibody (1:1000 in TBST with 5% BSA, Santa Cruz Biotechnologies). ERK phosphorylation levels (normalized to ERK2) were quantitated by detection of anti-mouse IRDye 800 and anti-rabbit IRDye 680 antibodies using a LiCOR Odyssey system.

CXCR4 = target: T5, CXCR4 (Homo sapiens, UniProt P61073); experiment: β-arrestin2 recruitment to CXCR4 by BRET; type: cell-based; conditions: 50 nM SDF-1α, 1 μM isoproterenol or 10 μM ICL1-9
T5 construct: expressed in transfected cells; host or cells: HEK293 stably overexpressing FLAG-β2AR, transient transfection
T5 sequence (P61073 whole entry, species assumed): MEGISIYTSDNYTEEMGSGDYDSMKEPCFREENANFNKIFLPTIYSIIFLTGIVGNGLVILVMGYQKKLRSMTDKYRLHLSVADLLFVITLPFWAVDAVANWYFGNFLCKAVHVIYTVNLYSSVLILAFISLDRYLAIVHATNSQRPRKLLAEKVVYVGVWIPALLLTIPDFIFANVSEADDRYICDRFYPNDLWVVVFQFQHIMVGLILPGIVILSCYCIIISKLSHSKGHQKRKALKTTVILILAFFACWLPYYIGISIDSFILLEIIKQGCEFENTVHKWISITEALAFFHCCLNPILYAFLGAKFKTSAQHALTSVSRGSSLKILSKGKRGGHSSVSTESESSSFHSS
Procedure: β-arrestin2 recruitment to CXCR4 was measured similarly in HEK293 cells stably overexpressing a FLAG-β2AR and transiently transfected with β-arrestin2-GFP10 and CXCR4-RLucII (15). BRET was monitored post-stimulation using 50 nM SDF-1α, 1 μM isoproterenol or 10 μM ICL1-9.

C57Bl/6 mice [9] = experiment: Cardiac function by echocardiography following ischemia-reperfusion (I/R) injury in mice; type: in vivo; conditions: echocardiography after I/R; compared to scrambled pepducin
Procedure: Cardiac function was assessed via transthoracic two-dimensional echocardiography performed at baseline and at 1, 3 and 7 days post MI using a […] probe on mice anesthetized with isoflurane (1.5%). M-mode echocardiography was performed in the parasternal short-axis view to assess several cardiac parameters including left ventricular (LV) fractional shortening, calculated using the equation […].

[10] = intramyocardial injection, 60 min ligation, vs scrambled pepducin

Compound: CCCCCCCCCCCCCCCC(=O)N[C@H](C(=O)N[C@@H](C)C(=O)N[C@H](C(=O)N[C@@H](C)C(=O)N[C@@H](CCCCN)C(=O)N[C@@H](Cc1ccccc1)C(=O)N[C@@H](CCC(=O)O)C(=O)N[C@@H](CCCNC(=N)N)C(=O)N[C@@H](CC(C)C)C(=O)N[C@@H](CCC(N)=O)C(=O)N[C@H](C(=O)N[C@H](C(=O)N[C@H](C(=O)N[C@@H](CC(N)=O)C(=O)N[C@@H](Cc1ccc(O)cc1)C(=O)N[C@@H](Cc1ccccc1)C(=O)N[C@H](C(=O)N[C@H](C(N)=O)[C@@H](C)O)[C@@H](C)CC)[C@@H](C)O)C(C)C)[C@@H](C)O)[C@@H](C)CC)[C@@H](C)O [ICL1-9] (HELM PEPTIDE1{[CCCCCCCCCCCCCCCC(=O)[*:2]].T.A.I.A.K.F.E.R.L.Q.T.V.T.N.Y.F.I.T.[am]}$$$$V2.0)
- β2AR phosphorylation at Ser355/Ser356 (FLAG-β2AR [1]): stimulated similar receptor phosphorylation albeit with slower kinetics and extent of phosphorylation; also recorded: promoted robust receptor phosphorylation
- PLB phosphorylation (phospholamban (PLB)): unable to induce significant PLB phosphorylation
- β-arrestin recruitment to the β1AR (FRET) (β1AR): no change in FRET activity
- effect on [125I]-iodocyanopindolol binding to β2ARs (β2AR [2]): did not affect [^125I]-iodocyanopindolol binding
- FLAG-β1AR internalization (FLAG-β1AR): did not induce significant receptor internalization
- cAMP production compared to vehicle control (FLAG-β2AR [3]): does not promote any cAMP production; also recorded: did not promote any cAMP production
- cardiomyocyte contraction, of isoproterenol-promoted ([4]; wild-type adult murine cardiomyocytes, 10 μM ICL1-9, 0.5 μM isoproterenol, 2 Hz): ~53%
- cardiomyocyte contraction, β2AR-knockout ([4]; β2AR-knockout adult murine cardiomyocytes, 10 μM): significantly impaired responsiveness; also recorded: unable to promote significant contraction
- cardiomyocyte contraction, β-arrestin1-knockout ([4]; β-arrestin1-knockout adult murine cardiomyocytes, 10 μM): significantly impaired responsiveness; also recorded: unable to promote significant contraction
- cardiomyocyte contraction, β-arrestin2-knockout ([4]; β-arrestin2-knockout adult murine cardiomyocytes, 10 μM): significantly impaired responsiveness
- mbb-β2AR conformational change (TM6 movement) (mBB-β2AR): able to promote mbb-β2AR conformational changes that stabilized TM6 movement
- EGFR transactivation (phosphorylation at EGFR Tyr845) (EGFR): promoted EGFR transactivation
- FLAG-β2AR internalization (FLAG-β2AR [5]): stimulate comparable levels of FLAG-β2AR internalization; also recorded: able to promote β2AR internalization
- cell death within the infarct zone (TUNEL) (C57Bl/6 mice [6]; versus scrambled pepducin): significantly reduced
- area-at-risk (AAR) (C57Bl/6 mice [6]; between groups): not significantly different
- area-not-at-risk (C57Bl/6 mice [6]; between groups): not significantly different
- infarct area as a percentage of AAR (C57Bl/6 mice [6]; [10]): significantly reduced
- infarct area as a percentage of total left ventricular (LV) area (C57Bl/6 mice [6]; [10]): significantly reduced
- β-arrestin coupling to the β2AR after pretreatment with ICI-118,551 (β2AR [7]): significantly inhibited by pretreatment with ICI-118,551
- calcium mobilization [8]: did not promote significant calcium mobilization
- ERK1/2 phosphorylation (ERK1/2): faster kinetics despite similar efficacy when compared to carvedilol
- β-arrestin2 recruitment to CXCR4 (CXCR4): had no effect
- cardiac contractility (% fractional shortening) (C57Bl/6 mice [9]): significantly blunted FR-induced loss of cardiac contractility
